# Reference: patent publication US20080176936A1, “Classes of Compounds that Interact with Integrins” (priority 2005, published 2008)
# How the values were obtained:
# αVβ3 integrin = biological target: T1, αVβ3 integrin (Homo sapiens, UniProt P05106+P06756); assay: ELISA: inhibition of binding of αVβ3 integrin (source WM-115 cell line) to coated extracellular matrix protein; details: WM-115 cell line as integrin source
# T1 construct: the cell line WM-115 was used as a source of αVβ3 integrin; endogenous in cells; host or cells: WM-115 cell line
# How it was run: (§1)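 Integrin sources were human platelet membrane preparations for αIIbβ3 and WM-115 cells for αVβ3, each preincubated with test compound. Binding to fibrinogen- or vitronectin-coated plates (10 µg/well) was quantified with an anti-integrin β3 antibody and an HRP-coupled secondary antibody using colorimetric detection.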
# αllbβ3 integrin = biological target: T2, αllbβ3 integrin (Homo sapiens, UniProt P05106+P08514); assay: ELISA: inhibition of binding of αllbβ3 integrin membrane preparation to coated extracellular matrix protein; details: human platelet membrane preparation
# T2 construct: Human platelet membrane preparations were used as a source of αllbβ3 integrin; from tissue; host or cells: human platelets (membrane preparation)
# How it was run: as §1
# T1 sequence (P06756 31-889 limits assumed): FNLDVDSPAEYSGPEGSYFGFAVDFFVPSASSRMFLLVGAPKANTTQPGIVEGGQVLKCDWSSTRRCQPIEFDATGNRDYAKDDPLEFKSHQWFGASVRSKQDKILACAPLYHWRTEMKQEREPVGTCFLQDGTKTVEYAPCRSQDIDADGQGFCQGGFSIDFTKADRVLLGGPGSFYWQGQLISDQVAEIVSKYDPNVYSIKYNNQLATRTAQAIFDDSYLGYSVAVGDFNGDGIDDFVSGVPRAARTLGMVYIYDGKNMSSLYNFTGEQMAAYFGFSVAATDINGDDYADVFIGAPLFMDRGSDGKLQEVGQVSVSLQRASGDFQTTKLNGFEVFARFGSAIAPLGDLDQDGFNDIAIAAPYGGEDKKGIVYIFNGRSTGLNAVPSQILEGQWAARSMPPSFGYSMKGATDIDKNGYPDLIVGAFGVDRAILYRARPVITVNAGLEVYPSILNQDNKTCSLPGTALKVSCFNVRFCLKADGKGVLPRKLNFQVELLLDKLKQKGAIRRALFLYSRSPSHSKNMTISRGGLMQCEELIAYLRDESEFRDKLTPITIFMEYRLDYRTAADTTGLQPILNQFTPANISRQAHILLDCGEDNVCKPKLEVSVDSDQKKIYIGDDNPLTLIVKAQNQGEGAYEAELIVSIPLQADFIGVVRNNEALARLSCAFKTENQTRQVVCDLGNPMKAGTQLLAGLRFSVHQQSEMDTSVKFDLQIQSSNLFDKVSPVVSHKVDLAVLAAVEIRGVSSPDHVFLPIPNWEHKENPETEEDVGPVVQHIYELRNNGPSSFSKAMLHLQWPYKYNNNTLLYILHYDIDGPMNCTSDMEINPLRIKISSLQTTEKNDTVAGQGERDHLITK
# T1 sequence (P06756 891-1048 partner limits assumed): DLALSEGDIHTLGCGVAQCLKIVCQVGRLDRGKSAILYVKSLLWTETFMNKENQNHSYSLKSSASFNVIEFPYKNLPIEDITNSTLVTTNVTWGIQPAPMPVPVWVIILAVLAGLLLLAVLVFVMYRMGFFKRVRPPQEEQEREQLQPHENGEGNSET
# T1 sequence (P05106 27-788): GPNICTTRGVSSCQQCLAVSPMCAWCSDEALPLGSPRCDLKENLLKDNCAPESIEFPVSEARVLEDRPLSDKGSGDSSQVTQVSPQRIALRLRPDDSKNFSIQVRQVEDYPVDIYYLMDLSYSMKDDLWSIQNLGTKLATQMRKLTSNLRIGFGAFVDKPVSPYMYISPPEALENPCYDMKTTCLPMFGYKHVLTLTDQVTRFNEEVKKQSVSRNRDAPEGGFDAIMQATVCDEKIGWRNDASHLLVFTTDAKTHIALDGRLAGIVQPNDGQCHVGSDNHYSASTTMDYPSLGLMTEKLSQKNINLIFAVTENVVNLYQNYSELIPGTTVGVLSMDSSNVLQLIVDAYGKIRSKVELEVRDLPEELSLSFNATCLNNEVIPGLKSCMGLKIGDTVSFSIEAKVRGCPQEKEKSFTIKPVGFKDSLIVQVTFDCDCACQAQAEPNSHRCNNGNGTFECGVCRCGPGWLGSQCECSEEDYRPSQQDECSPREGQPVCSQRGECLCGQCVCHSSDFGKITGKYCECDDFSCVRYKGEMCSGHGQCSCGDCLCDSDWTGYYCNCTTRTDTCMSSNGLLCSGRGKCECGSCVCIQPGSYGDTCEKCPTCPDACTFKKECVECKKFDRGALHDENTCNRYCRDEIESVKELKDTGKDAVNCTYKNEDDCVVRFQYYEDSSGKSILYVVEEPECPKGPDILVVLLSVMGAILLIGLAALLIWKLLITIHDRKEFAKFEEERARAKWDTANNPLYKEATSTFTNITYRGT
# T2 sequence (P08514 32-887 limits assumed): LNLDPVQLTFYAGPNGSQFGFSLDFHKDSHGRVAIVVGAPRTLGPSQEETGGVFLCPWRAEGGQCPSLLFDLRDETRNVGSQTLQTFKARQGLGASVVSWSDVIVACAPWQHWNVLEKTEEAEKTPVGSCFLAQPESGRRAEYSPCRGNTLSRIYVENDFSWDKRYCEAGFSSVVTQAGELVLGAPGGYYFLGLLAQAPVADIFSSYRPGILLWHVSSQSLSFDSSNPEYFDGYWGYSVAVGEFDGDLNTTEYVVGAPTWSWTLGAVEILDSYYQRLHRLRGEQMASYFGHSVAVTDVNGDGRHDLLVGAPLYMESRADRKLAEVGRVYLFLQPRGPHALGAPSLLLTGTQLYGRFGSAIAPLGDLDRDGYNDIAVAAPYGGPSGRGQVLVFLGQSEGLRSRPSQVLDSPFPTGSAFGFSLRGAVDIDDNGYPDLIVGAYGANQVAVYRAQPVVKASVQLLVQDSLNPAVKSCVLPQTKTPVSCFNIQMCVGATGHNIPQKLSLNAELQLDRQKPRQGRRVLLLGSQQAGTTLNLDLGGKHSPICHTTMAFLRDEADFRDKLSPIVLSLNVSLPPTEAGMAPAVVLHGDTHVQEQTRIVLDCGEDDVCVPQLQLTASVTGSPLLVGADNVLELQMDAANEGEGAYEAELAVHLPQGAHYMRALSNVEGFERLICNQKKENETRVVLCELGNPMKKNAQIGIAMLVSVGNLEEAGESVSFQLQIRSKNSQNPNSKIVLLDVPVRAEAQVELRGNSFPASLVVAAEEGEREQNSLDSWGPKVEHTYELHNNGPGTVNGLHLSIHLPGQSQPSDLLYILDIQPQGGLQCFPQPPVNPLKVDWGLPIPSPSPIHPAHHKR
# T2 sequence (P08514 891-1039 partner limits assumed): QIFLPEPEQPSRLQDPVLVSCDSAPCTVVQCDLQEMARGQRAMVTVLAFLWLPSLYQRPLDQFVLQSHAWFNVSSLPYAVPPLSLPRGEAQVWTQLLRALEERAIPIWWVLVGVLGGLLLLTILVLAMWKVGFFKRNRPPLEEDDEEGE
# T2 sequence (P05106 27-788): as the sequence (P05106 27-788) above
SMILES,INHIBITION 250 uM RECEPTOR aVb3 SUBSTRATE FIBRINOGEN (αVβ3 integrin),INHIBITION @ 250 uM RECEPTOR allBb3 SUBSTRATE FIBRINOGEN (αllbβ3 integrin),INHIBITION 250 uM RECEPTOR allBb3 SUBSTRATE VITRONECTIN (αllbβ3 integrin)
"CCC(=O)NC1C(OCc2ccccc2)OC(COCC(=O)O)C(O)C1OCc1cccc(N)c1 (single isomer, unassigned) [Compound 110]",− (0% to 35% inhibition at 250 micromolar),− (0% to 35% inhibition at 250 micromolar),+++ (81% to 100% inhibition at 250 micromolar)
"CCC(=O)NC1C(OCc2ccccc2)OC(COCc2ccc(C(=O)O)cc2)C(O)C1OCc1cccc(N)c1 (single isomer, unassigned) [Compound 111]",− (0% to 35% inhibition at 250 micromolar),− (0% to 35% inhibition at 250 micromolar),+++ (81% to 100% inhibition at 250 micromolar)
"CCC(=O)NC1C(OCc2ccccc2)OC(COCc2ccc(C(=O)O)cc2)C(O)C1OCc1cccc(N)c1 (single isomer, unassigned) [Compound 112]",+++ (81% to 100% inhibition at 250 micromolar),− (0% to 35% inhibition at 250 micromolar),+++ (81% to 100% inhibition at 250 micromolar)
"CC(=O)NC1C(OCCNC(=N)N)OC(COCC(=O)O)C(O)C1OCc1ccccc1 (single isomer, unassigned) [Compound 113]",+++ (81% to 100% inhibition at 250 micromolar),+ (36% to 60% inhibition at 250 micromolar),+++ (81% to 100% inhibition at 250 micromolar)
"COCC1OC(OCCNC(=N)N)C(NC(=O)c2ccccc2)C(OCc2ccc(C(=O)O)cc2)C1O (single isomer, unassigned) [Compound 114]",− (0% to 35% inhibition at 250 micromolar),− (0% to 35% inhibition at 250 micromolar),++ (61% to 80% inhibition at 250 micromolar)
"COCC1OC(OCCNC(=N)N)C(NC(=O)c2ccccc2)C(OCc2ccc(C(=O)O)cc2)C1O (single isomer, unassigned) [Compound 115]",− (0% to 35% inhibition at 250 micromolar),− (0% to 35% inhibition at 250 micromolar),− (0% to 35% inhibition at 250 micromolar)
"CCOC1OC(COCC(=O)O)C(O)C(OCc2ccccc2)C1NC(=O)CN (single isomer, unassigned) [Compound 116]",− (0% to 35% inhibition at 250 micromolar),− (0% to 35% inhibition at 250 micromolar),− (0% to 35% inhibition at 250 micromolar)
"CCOC1OC(COCC(=O)O)C(O)C(OCc2ccccc2)C1NC(=O)CN (single isomer, unassigned) [Compound 117]",− (0% to 35% inhibition at 250 micromolar),+ (36% to 60% inhibition at 250 micromolar),+++ (81% to 100% inhibition at 250 micromolar)
"CCOC1OC(COCC(=O)O)C(O)C(OCc2ccccc2)C1NC(=O)CNC(=N)N (single isomer, unassigned) [Compound 118]",− (0% to 35% inhibition at 250 micromolar),− (0% to 35% inhibition at 250 micromolar),+++ (81% to 100% inhibition at 250 micromolar)
"CCOC1OC(COCC(=O)O)C(O)C(OCc2ccccc2)C1NC(=O)CNC(=N)N (single isomer, unassigned) [Compound 119]",− (0% to 35% inhibition at 250 micromolar),− (0% to 35% inhibition at 250 micromolar),+++ (81% to 100% inhibition at 250 micromolar)
"CCOC1OC(COCC(=O)O)C(O)C(OCc2ccccc2)C1NC(=O)CCN (single isomer, unassigned) [Compound 120]",− (0% to 35% inhibition at 250 micromolar),+ (36% to 60% inhibition at 250 micromolar),+ (36% to 60% inhibition at 250 micromolar)
"CCOC1OC(COCC(=O)O)C(O)C(OCc2ccccc2)C1NC(=O)CCNC(=N)N (single isomer, unassigned) [Compound 122]",− (0% to 35% inhibition at 250 micromolar),++ (61% to 80% inhibition at 250 micromolar),++ (61% to 80% inhibition at 250 micromolar)
"COC1OC(COCC(=O)O)C(O)C(OCc2ccccc2)C1NC(=O)CCCN (single isomer, unassigned) [Compound 123]",− (0% to 35% inhibition at 250 micromolar),+ (36% to 60% inhibition at 250 micromolar),+++ (81% to 100% inhibition at 250 micromolar)
"COC1OC(COCC(=O)O)C(O)C(OCc2ccccc2)C1NC(=O)CCCN (single isomer, unassigned) [Compound 124]",+ (36% to 60% inhibition at 250 micromolar),++ (61% to 80% inhibition at 250 micromolar),+++ (81% to 100% inhibition at 250 micromolar)
"COC1OC(COCC(=O)O)C(O)C(OCc2ccccc2)C1NC(=O)CCCNC(=N)N (single isomer, unassigned) [Compound 125]",+ (36% to 60% inhibition at 250 micromolar),+ (36% to 60% inhibition at 250 micromolar),+++ (81% to 100% inhibition at 250 micromolar)
"COC(=O)COCC1OC(OC)C(NC(=O)CCCNC(=N)N)C(OCc2ccccc2)C1O (single isomer, unassigned) [Compound 126]",+++ (81% to 100% inhibition at 250 micromolar),++ (61% to 80% inhibition at 250 micromolar),+++ (81% to 100% inhibition at 250 micromolar)
"COC1OC(COCC(=O)O)C(O)C(OCc2ccccc2)C1NC(=O)c1ccc(CN)cc1 (single isomer, unassigned) [Compound 127]",− (0% to 35% inhibition at 250 micromolar),− (0% to 35% inhibition at 250 micromolar),− (0% to 35% inhibition at 250 micromolar)
"COC1OC(COCC(=O)O)C(O)C(OCc2ccccc2)C1NC(=O)c1ccc(CNC(=N)N)cc1 (single isomer, unassigned) [Compound 128]",− (0% to 35% inhibition at 250 micromolar),− (0% to 35% inhibition at 250 micromolar),+++ (81% to 100% inhibition at 250 micromolar)
"COC1OC(COCC(=O)O)C(O)C(OCc2ccccc2)C1NC(=O)c1ccc(CNC(=N)N)cc1 (single isomer, unassigned) [Compound 129]",− (0% to 35% inhibition at 250 micromolar),− (0% to 35% inhibition at 250 micromolar),+++ (81% to 100% inhibition at 250 micromolar)
